Data set [1] concerns the target T1, p38 MAP kinase (Homo sapiens, UniProt Q16539).
T1 construct: made in house; host or cells: E. coli (co-expressed with SEK-1 and MEKK)
The experiment in a line: p38 MAP kinase in vitro assay (33P-ATP phosphate transfer to Myelin Basic Protein). The format is biochemical. How it is done:
This example illustrates a p38 (MAP) kinase in vitro assay useful for evaluating the compounds of the invention.
The p38 MAP kinase inhibitory activity of compounds of this invention in vitro was determined by measuring the transfer of the γ-phosphate from γ-^33P-ATP by p-38 kinase to Myelin Basic Protein (MBP), using a minor modification of the method described in Ahn, et al., J. Biol. Chem. 266:4220-4227 (1991).
The phosphorylated form of the recombinant p38 MAP kinase was co-expressed with SEK-1 and MEKK in E. Coli (see, Khokhlatchev, et al., J. Biol. Chem. 272:11057-11062 (1997)) and then purified by affinity chromatography using a Nickel column.
The phosphorylated p38 MAP kinase was diluted in kinase buffer (20 mM 3-(N-morpholino)propanesulfonic acid, pH 7.2, 25 mM β-glycerol phosphate, 5 mM ethylene glycol-bis(beta-aminoethyl ether)-N,N,N′,N′-tetraacetic acid, 1 mM sodium ortho-vanadate, 1 mM dithiothreitol, 40 mM magnesium chloride). Test compound dissolved in DMSO or only DMSO (control) was added and the samples were incubated for 10 min at 30° C. The kinase reaction was initiated by the addition of a substrate cocktail containing MBP and γ-^33P-ATP. […] The phosphorylated MBP was then separated from the residual γ-^33P-ATP using a phosphocellulose membrane (Millipore, Bedfrod, Mass.) and quantitated using a scintillation counter (Packard, Meriden, Conn.).

Data set [2] has as its target T2, cloned human c-Raf (Homo sapiens, UniProt P04049).
T2 construct: made in house; host or cells: High-5 (Hi5) insect cells, baculovirus, co-infected with FLAG-vSrc
As to the kind of experiment: c-Raf HTRF assay with 6H-MEK as substrate (dose response). To be noted: 6H-MEK substrate. It counts as biochemical. On the procedure:
c-Raf HTRF Assay with 6H-MEK as Substrate (Dose Response)
This assay utilizes 6H-MEK as the substrate. Upon c-Raf phosphorylation, phosphorylated 6H-MEK is detected with rabbit anti-phospho-MEK1/2, Eu-labeled anti-rabbit, and APC-labeled anti-6H antibodies.
Procedure • (1) Prepare Kinase Assay Buffer (KAB): 50 mM HEPES (HyClone) pH7, 10 mM MgCl2, 1 mM DTT, 0.1 mM […], and 0.3 mg/ml BSA. • (2) Prepare 6H-MEK (150 nM) in KAB. Add 12 μl/well to the assay plate. • (3) Prepare ATP (66 μM) in KAB. • (4) Dilute compounds to 2.4 mM and any positive controls to 480 μM in DMSO. Perform 10-point 3× dilution in DMSO. […] For the cross talk factor sample, add 6 μl/well of Eu-anti rabbit IgG (9 nM). • (14) Incubate at room temperature for 1.5 hours. • (15) Read HTRF signals at 615 nm and 665 nm on the Envision. […]
N terminal EE-tagged c-Raf was expressed in High-5 cells. […] Protein concentration was determined by the BioRad DC method.
(In TR-FRET formats the signal depends on donor and acceptor labels being close together.)

For data set [3], the target named is T3, recombinant human b-Raf residues 416-end (wild type) (Homo sapiens, UniProt P15056).
T3 construct: recombinant human b-Raf residues 416-end with N-terminal GST-tag; purchased Upstate 14-530M; host or cells: baculovirus in Sf21 insect cells
T3 sequence (P15056 416-766 limits assumed): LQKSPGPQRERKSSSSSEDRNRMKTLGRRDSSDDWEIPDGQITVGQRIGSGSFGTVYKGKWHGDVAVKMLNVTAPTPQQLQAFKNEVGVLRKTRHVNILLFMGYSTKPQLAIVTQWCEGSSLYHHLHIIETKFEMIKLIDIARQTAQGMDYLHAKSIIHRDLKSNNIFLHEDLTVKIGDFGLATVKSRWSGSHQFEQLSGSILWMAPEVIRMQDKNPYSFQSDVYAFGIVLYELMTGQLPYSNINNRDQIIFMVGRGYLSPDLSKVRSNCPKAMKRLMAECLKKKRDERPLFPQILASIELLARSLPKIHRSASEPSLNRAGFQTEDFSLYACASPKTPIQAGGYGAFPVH
The experiment in a line: b-Raf wild-type HTRF assay with 6H-MEK as substrate (dose response). The format is biochemical. To be noted: 6H-MEK substrate. How it is done:
b-Raf Wild-Type HTRF Assay with 6H-MEK as Substrate (Dose Response)
This assay utilizes 6H-MEK as the substrate. Upon b-Raf WT phosphorylation, phosphorylated 6H-MEK is detected with rabbit anti-phospho-MEK1/2, Eu-labeled anti-rabbit, and APC-labeled anti-6H antibodies.
Assay Procedure: • (1) Prepare Kinase Assay Buffer (KAB): 50 mM HEPES (HyClone) pH7, 10 mM MgCl2, 1 mM DTT, 0.1 mM […], and 0.3 mg/ml BSA. • (2) Prepare 6H-MEK (150 nM) in KAB. Add 12 μl/well to the assay plate. • (3) Prepare ATP (66 μM) in KAB. • (4) Dilute compounds to 2.4 mM and any positive controls to 480 μM in DMSO. Perform 10-point 3× dilution in DMSO. […] For the cross talk factor sample, add 6 μl/well of Eu-anti rabbit IgG (9 nM). • (14) Incubate at room temperature for 1.5 hours. • (15) Read HTRF signals at 615 nm and 665 nm on the Envision. […]

Data set [4] has as its target T4, recombinant human b-Raf residues 416-end containing a V600E mutation (Homo sapiens, UniProt P15056, V600E).
T4 construct: recombinant human b-Raf residues 416-end containing a V600E mutation; purchased Upstate 14-5M; host or cells: baculovirus in Sf21 insect cells
The experiment in a line: b-Raf V600E mutant HTRF assay with 6H-MEK as substrate (dose response). It counts as biochemical. The note with it: 6H-MEK substrate. How it is done: b-Raf V600E Mutant HTRF Assay with 6H-MEK as Substrate (Dose Response)
This assay utilizes 6H-MEK as the substrate. Upon b-Raf V600E phosphorylation, phosphorylated 6H-MEK is detected with rabbit anti-phospho-MEK1/2, Eu-labeled anti-rabbit, and APC-labeled anti-6H antibodies.
Assay Procedure: • (1) Prepare Kinase Assay Buffer (KAB): 50 mM HEPES (HyClone) pH7, 10 mM MgCl2, 1 mM DTT, 0.1 mM […], and 0.3 mg/ml BSA. • (2) Prepare 6H-MEK (150 nM) in KAB. Add 12 μl/well to the assay plate. • (3) Prepare ATP (66 μM) in KAB. • (4) Dilute compounds to 2.4 mM and positive controls to 480 μM in DMSO. Perform 10-point 3× dilution in DMSO. […] For the cross talk factor sample, add 6 μl/well of Eu-anti rabbit IgG (9 nM). • (14) Incubate at room temperature for 1.5 hours. • (15) Read HTRF signals at 615 nm and 665 nm on the Envision. […]

T2 sequence (P04049 whole entry): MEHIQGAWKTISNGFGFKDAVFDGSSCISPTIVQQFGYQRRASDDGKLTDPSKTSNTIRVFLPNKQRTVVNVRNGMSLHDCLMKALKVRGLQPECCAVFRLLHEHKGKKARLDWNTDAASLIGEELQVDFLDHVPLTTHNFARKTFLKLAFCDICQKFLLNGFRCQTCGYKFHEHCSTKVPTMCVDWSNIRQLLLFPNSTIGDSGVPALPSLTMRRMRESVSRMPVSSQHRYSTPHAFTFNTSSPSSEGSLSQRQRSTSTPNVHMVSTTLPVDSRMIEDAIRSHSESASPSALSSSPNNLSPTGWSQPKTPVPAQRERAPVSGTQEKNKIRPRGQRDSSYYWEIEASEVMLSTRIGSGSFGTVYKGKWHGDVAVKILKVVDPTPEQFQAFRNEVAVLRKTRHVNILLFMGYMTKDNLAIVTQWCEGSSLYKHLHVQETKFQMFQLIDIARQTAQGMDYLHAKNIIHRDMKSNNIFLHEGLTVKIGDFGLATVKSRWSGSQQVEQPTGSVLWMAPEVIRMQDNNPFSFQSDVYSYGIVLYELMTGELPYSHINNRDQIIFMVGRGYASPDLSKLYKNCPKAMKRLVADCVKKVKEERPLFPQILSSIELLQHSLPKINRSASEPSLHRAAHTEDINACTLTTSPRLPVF
T4 sequence (P15056 416-766 V600E): as the sequence (P15056 416-766 limits assumed) above, with V185E counted along it
T1 sequence (Q16539 whole entry): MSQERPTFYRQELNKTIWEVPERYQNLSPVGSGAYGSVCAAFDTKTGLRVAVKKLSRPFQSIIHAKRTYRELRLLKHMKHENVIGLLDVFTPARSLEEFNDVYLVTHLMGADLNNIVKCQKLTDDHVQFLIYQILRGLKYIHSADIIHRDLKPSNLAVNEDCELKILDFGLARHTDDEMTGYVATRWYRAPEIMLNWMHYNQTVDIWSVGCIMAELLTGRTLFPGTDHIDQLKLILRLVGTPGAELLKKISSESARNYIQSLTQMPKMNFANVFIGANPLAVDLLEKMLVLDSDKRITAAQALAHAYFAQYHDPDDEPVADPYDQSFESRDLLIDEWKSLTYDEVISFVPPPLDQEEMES

As a reminder, the melting point is the temperature of the solid-liquid transition. The molecule `Cc1ccc(-c2nnc[nH]2)cc1-c1cc2cnc(NC3CCOCC3)nc2n(C)c1=O` [Compound 11, 8-Methyl-6-[2-methyl-5-(4H-[1,2,4]triazol-3-yl)-phenyl]-2-(tetrahydro-pyran-4-ylamino)-8H-pyrido[2,3-d]pyrimidin-7-one] gave a melting point of 214.9 to 216 °C.
A word on the IC50: it is the concentration that inhibits the measured activity by half. The molecule `Cc1ccc(-c2ncc[nH]2)cc1-c1cc2cnc(NC3CCOCC3)nc2n(C)c1=O` [Compound 13, 6-[5-(1H-Imidazol-2-yl)-2-methyl-phenyl]-8-methyl-2-(tetrahydro-pyran-4-ylamino)-8H-pyrido[2,3-d]pyrimidin-7-one] registered a half-maximal inhibitory concentration (IC50) in data set [1] of about 0.66 nM.
`Cc1ccc(C#N)cc1-c1cc2cnc(NC3CCOCC3)nc2n(C)c1=O` [Compound 12, 4-Methyl-3-[8-methyl-7-oxo-2-(tetrahydro-pyran-4-ylamino)-7,8-dihydro-pyrido[2,3-d]pyrimidin-6-yl]-benzonitrile] yielded a melting point of 253.5 to 254.1 °C.
As to `Cc1nnc(-c2ccc(C)c(-c3cc4cnc(NC5CCOCC5)nc4n(C)c3=O)c2)o1` [Compound 4, 8-Methyl-6-[2-methyl-5-(5-methyl-[1,3,4]oxadiazol-2-yl)-phenyl]-2-(tetrahydro-pyran-4-ylamino)-8H-pyrido[2,3-d]pyrimidin-7-one], in data set [2], the 50% inhibitory concentration (IC50) is about 190 nM.
The molecule `COC(=O)c1ccc(C)c(-c2cc3cnc(NC4CCOCC4)nc3n(C)c2=O)c1` [Compound 1, 4-Methyl-3-[8-methyl-7-oxo-2-(tetrahydro-pyran-4-ylamino)-7,8-dihydro-pyrido[2,3-d]pyrimidin-6-yl]-benzoic acid methyl ester] displayed a melting point of 122.5 to 126.5 °C.
With `CNC(=O)c1ccc(C)c(-c2cc3cnc(NC4CCOCC4)nc3n(C)c2=O)c1` [Compound 8, 4,N-Dimethyl-3-[8-methyl-7-oxo-2-(tetrahydro-pyran-4-ylamino)-7,8-dihydro-pyrido[2,3-d]pyrimidin-6-yl]-benzamide], the IC50 in data set [3] was about 20 nM; in data set [4] it was about 10 nM.
